From ChEMBL document CHEMBL1201862, “PubChem BioAssay data set” (2004)
Calls of active or inactive are those of the source.

Assays:
[1] = biological target: T1, Carboxy-terminal domain RNA polymerase II polypeptide A small phosphatase 1 (Homo sapiens, UniProt Q9GZU7); test: inhibitors of CTDSP1, concentration-response testing, biochemical assay, absorbance-based, actives from ultra-high-throughput screening (AID 540297); assay type: functional
T1 sequence (Q9GZU7 whole entry): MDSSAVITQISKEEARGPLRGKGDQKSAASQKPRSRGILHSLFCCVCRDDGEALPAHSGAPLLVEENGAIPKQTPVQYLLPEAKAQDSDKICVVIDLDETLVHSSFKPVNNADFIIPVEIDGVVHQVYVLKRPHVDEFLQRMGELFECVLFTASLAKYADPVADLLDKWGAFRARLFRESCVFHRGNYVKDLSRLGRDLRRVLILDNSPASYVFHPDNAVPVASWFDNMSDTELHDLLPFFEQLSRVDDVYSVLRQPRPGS

[2] = biological target: T2, Probable nicotinate-nucleotide adenylyltransferase (Staphylococcus aureus (strain N315), UniProt P65502); assay type: functional, Staphylococcus aureus subsp. aureus N315;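 on IC50 Mean: confirmatory dose-response retesting of NadD inhibitor hits first found in an ultra-high-throughput screen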
T2 sequence (P65502 whole entry): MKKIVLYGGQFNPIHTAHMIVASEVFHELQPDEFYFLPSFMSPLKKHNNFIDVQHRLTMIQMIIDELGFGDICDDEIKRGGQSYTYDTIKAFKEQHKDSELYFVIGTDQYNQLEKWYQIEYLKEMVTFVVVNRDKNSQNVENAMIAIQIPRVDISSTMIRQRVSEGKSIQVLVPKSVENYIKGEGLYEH

[3] = biological target: T2, Probable nicotinate-nucleotide adenylyltransferase; assay type: functional, Staphylococcus aureus subsp. aureus N315; conditions: read-out: IC50_Mean
[4] = biological target: DNA dC->dU-editing enzyme APOBEC-3G (Homo sapiens, UniProt Q9HC16); test: Dose Response confirmation of small molecule APOBEC3G DNA Deaminase Inhibitors via a fluorescence-based single-stranded DNA deaminase assay. [Related pubchem assays (depositor defined):AID493012, AID493028]; assay type: functional
Chain of DNA dC->dU-editing enzyme APOBEC-3G (Q9HC16 whole entry): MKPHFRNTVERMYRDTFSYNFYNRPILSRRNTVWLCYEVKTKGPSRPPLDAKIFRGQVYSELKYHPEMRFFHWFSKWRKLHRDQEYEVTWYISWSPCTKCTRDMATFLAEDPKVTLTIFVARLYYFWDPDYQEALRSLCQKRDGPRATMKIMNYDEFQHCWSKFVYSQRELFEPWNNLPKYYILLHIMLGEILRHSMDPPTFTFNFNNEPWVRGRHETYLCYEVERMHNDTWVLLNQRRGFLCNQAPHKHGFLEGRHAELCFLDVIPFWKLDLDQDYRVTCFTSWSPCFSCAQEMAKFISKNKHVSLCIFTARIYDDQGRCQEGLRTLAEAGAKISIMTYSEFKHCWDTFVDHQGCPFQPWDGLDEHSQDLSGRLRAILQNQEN

[5] = biological target: DNA dC->dU-editing enzyme APOBEC-3A (Homo sapiens, UniProt P31941); test: APOBEC3A DNA deaminase inhibitors, dose response, biochemical (AID 504722); assay type: functional
Chain of DNA dC->dU-editing enzyme APOBEC-3A (P31941 whole entry): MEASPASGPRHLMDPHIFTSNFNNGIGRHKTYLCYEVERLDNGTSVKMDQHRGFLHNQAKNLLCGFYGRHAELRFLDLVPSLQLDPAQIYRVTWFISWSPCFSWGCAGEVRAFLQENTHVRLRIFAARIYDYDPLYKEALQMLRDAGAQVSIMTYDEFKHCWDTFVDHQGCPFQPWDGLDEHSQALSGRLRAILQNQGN

[6] = cytotoxicity in HEK-293T cells, dose response, cytotoxicity control for BCR NF-kB inhibitor project, luminescence, B-cell screen hits (AID 489021); assay type: functional, cell-based;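 further: HEK-293T cells carrying an NF-kB luciferase reporter; cells exposed to compound for about 14 hours before viability readout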
[7] = biological target: Induced myeloid leukemia cell differentiation protein Mcl-1 (Homo sapiens, UniProt Q07820); assay type: functional
Chain of Induced myeloid leukemia cell differentiation protein Mcl-1 (Q07820 whole entry): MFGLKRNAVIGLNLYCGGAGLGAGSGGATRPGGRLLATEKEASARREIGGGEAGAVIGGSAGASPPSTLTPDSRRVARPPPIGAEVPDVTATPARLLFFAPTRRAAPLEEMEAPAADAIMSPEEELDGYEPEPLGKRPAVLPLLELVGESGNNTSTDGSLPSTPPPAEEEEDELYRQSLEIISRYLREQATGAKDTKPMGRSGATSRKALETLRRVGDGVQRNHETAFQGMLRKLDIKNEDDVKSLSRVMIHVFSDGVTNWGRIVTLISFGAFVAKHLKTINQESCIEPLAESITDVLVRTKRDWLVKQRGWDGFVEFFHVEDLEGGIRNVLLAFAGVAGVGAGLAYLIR

[8] = biological target: Large T antigen (Simian virus 40, UniProt P03070); assay type: functional, Betapolyomavirus macacae;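 further: Confirmatory-stage PubChem screen for compounds that inhibit SV40 T antigen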
Chain of Large T antigen (P03070 whole entry): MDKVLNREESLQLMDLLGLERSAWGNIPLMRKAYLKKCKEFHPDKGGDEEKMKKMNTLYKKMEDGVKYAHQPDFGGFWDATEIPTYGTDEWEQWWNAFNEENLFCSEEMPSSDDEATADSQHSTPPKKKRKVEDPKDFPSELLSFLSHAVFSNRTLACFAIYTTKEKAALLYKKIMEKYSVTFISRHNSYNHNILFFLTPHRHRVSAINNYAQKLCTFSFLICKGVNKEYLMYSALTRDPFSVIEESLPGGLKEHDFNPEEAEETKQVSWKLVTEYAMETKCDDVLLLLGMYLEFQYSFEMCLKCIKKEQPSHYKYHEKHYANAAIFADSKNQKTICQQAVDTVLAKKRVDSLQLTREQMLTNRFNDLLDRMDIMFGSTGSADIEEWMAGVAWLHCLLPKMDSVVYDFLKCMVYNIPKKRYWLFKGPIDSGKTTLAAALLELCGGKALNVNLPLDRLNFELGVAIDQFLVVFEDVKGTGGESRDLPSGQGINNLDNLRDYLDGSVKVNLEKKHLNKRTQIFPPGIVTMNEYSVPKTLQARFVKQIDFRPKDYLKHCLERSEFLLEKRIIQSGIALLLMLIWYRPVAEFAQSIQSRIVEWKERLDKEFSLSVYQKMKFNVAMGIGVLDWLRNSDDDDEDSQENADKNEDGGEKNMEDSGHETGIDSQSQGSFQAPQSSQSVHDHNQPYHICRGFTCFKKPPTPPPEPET

[9] = test system: Streptococcus; test: Group A Streptococcus viability loss, dose response, counter-screen for streptokinase expression inhibitor project, luminescence, BacTiterGlo (AID 1915); assay type: functional, organism-based;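 further: potency for reduction of bacterial viability or growth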
[10] = inhibitors of intracellular T. cruzi replication, confirmation, NIH3T3 host cells, beta-gal luminescence (AID 2044); assay type: functional, cell-based;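 further: intracellular parasites grown in NIH/3T3 mouse fibroblasts as host cells; luminescent beta-galactosidase reporter signal from transgenic T. cruzi replicating inside host cells; inhibitors lower the luminescence signal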
[11] = cytotoxicity toward NIH3T3 fibroblasts, dose response, counter-screen, cell-based, ATP luminescence, mouse fibroblasts (AID 2010); assay type: functional;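 further: cells exposed to compound for about 90 hours before reading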
[12] = biological target: T3, Aspartyl aminopeptidase (Plasmodium falciparum 3D7, UniProt Q8I2J3)
T3 sequence (Q8I2J3 whole entry): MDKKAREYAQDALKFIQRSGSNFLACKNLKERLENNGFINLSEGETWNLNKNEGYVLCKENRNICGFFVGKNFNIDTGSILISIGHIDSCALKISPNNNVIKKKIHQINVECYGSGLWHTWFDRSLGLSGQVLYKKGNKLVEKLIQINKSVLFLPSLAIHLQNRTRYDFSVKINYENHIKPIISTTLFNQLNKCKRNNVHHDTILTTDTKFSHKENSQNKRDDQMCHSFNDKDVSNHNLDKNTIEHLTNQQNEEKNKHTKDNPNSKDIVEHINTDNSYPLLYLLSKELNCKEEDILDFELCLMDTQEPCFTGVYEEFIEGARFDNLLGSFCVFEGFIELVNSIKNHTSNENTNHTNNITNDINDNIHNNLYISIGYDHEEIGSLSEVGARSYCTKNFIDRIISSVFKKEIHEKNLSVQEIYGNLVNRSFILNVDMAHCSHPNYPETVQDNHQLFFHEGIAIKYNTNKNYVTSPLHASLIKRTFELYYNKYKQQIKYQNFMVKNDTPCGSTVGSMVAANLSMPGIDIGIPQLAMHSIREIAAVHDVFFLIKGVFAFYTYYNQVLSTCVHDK

[13] = biological target: T4, Streptokinase A (Streptococcus pyogenes serotype M1, UniProt P10520); test: S. pyogenes streptokinase expression inhibitors, potency, dose response, plasminogen activation absorbance, OD405 (AID 1914); assay type: functional, Streptococcus pyogenes M1 GAS;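 further: secreted streptokinase activity via plasminogen activation per viability signal from cell pellet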
T4 sequence (P10520 whole entry): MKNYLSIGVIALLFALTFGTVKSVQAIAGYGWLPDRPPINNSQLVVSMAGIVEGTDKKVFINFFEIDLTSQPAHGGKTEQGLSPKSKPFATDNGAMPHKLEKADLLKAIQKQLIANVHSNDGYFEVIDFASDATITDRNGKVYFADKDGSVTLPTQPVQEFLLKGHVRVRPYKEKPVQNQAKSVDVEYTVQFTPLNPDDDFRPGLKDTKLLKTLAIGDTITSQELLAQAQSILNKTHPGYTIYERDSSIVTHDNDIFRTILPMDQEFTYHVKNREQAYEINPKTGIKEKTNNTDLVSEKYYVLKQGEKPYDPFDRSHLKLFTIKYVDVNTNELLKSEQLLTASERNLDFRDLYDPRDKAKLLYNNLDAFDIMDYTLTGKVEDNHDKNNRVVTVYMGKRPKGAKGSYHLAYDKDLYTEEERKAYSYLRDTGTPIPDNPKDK

[14] = test system: Streptococcus sp. 'group A'; test: growth inhibition of control SK(-) GAS strain, dose response, counter-screen for streptokinase expression inhibitor project, luminescence, kanamycin, BacTiterGlo, confirmation (AID 1900); assay type: functional, organism-based
[15] = biological target: Procathepsin L (Homo sapiens, UniProt P07711)
Chain of Procathepsin L (P07711 whole entry): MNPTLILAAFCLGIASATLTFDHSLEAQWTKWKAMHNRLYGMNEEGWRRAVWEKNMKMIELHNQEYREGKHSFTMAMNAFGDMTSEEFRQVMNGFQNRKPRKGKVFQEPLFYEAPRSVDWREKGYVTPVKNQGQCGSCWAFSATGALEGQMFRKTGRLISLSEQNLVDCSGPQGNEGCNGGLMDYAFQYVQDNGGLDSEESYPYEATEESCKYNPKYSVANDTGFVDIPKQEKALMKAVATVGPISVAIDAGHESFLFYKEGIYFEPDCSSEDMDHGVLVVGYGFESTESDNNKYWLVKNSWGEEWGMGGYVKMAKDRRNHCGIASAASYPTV

[16] = biological target: Voltage-dependent T-type calcium channel subunit alpha-1H (Homo sapiens, UniProt O95180); assay type: functional;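 further: channel activity triggered by adding a high calcium stimulation buffer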
Chain of Voltage-dependent T-type calcium channel subunit alpha-1H (O95180 whole entry): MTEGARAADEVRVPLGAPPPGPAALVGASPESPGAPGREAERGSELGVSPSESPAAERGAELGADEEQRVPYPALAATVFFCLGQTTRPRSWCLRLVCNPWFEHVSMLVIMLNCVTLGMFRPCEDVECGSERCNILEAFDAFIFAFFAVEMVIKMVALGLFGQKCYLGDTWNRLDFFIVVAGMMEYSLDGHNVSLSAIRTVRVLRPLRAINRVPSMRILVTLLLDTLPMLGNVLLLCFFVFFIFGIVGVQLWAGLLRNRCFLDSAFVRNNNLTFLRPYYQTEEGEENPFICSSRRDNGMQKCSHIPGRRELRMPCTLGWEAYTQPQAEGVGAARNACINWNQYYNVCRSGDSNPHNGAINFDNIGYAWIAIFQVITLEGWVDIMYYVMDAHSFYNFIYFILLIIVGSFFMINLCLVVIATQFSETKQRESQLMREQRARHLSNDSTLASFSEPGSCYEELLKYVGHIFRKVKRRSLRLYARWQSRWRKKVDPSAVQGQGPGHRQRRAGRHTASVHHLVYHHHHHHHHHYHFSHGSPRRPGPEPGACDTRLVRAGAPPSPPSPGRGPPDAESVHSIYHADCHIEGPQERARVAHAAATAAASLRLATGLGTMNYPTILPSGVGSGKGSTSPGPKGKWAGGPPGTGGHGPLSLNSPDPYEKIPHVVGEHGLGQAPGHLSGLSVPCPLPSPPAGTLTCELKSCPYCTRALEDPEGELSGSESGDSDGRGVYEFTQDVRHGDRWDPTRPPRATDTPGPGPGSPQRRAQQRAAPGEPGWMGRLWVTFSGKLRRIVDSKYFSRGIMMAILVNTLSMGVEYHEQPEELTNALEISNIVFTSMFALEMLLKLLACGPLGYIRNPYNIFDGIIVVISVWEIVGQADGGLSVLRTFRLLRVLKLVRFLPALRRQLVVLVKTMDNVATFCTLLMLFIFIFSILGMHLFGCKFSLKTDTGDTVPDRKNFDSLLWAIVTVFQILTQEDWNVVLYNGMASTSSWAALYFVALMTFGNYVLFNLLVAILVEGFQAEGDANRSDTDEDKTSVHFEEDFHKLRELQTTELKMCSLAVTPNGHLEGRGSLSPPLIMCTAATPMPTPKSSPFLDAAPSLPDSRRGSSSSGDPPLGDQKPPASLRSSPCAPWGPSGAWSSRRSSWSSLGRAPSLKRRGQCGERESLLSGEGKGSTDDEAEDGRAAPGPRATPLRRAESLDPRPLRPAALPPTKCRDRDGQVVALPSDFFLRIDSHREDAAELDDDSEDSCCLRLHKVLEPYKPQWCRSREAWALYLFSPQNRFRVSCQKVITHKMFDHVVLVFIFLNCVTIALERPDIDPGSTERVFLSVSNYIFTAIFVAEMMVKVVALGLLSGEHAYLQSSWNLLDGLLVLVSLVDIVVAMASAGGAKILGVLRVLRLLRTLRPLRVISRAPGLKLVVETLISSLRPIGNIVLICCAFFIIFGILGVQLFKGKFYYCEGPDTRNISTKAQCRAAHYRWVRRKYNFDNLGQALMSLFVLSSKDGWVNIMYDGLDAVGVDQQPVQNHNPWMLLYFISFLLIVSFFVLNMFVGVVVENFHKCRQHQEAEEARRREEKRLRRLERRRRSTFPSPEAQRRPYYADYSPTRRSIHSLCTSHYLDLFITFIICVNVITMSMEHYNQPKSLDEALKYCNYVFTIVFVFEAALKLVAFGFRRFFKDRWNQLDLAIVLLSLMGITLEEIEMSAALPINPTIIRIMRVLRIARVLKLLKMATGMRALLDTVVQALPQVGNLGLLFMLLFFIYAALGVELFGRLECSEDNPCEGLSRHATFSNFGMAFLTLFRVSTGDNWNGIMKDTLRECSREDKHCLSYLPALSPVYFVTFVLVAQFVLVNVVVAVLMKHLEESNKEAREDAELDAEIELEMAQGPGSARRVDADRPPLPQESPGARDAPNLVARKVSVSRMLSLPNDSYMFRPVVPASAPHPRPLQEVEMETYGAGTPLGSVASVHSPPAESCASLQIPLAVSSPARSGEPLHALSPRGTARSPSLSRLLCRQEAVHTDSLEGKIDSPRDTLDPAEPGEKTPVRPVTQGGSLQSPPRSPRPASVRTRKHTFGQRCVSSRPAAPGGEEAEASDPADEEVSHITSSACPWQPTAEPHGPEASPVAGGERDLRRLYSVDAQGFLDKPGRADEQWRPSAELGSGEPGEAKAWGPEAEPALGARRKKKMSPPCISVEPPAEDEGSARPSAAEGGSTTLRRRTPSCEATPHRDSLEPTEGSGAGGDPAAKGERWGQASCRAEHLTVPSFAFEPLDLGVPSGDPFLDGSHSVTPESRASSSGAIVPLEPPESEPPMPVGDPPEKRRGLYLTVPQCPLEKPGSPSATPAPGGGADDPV

[17] = A cytotoxicity screen of small molecule inhibitors of the PhoP region in Salmonella typhi identified in the primary screen. [Related pubchem assays: 1850, 1864, 1985 ]; assay type: functional
[18] = biological target: T5, Fatty acid synthase (Homo sapiens, UniProt P49327); test: FAS thioesterase domain inhibitors, dose response, biochemical, kinetic fluorescence intensity (AID 624326); assay type: functional;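 further: rate of fluorescence rise from hydrolysis of a fluorogenic O-methyl fluorescein ester substrate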
[19] = biological target: T5, Fatty acid synthase; test: FAS thioesterase domain inhibitors, dose response, biochemical, endpoint fluorescence intensity, uHTS hits (AID 624327); assay type: functional;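 further: fluorescence from hydrolysis of an O-methyl fluorescein acyl ester substrate by the enzyme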
[20] = inhibitors of Bluetongue virus cytopathic effect, confirmation, arbovirus, BSR cells (AID 1250); assay type: functional;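 further: protection from viral cytopathic effect measured as cell viability by ATP luminescence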
[21] = biological target: Neurotensin receptor type 1 (Homo sapiens, UniProt P30989); assay type: functional;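 further: Image-based confirmatory dose-response assay measuring agonist activity at NTR1; NTR1-expressing U2OS osteosarcoma cells imaged for beta-arrestin GFP spot formation; agonist potency where compounds increase beta-arrestin recruitment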
Chain of Neurotensin receptor type 1 (P30989 whole entry): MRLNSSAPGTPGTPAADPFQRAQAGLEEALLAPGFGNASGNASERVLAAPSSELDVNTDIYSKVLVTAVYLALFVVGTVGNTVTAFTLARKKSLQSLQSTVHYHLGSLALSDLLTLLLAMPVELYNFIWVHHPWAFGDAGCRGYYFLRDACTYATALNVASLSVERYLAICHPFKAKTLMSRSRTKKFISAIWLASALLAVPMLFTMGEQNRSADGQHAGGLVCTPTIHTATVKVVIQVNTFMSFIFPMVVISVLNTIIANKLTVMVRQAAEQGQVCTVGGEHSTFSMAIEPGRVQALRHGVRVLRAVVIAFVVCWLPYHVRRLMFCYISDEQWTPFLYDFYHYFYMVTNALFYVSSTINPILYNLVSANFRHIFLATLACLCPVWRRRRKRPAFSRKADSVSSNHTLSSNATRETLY

[22] = biological target: T6, Coagulation factor XII (Homo sapiens, UniProt P00748); assay type: functional;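 further: activated factor XIIa alpha cleaving a fluorogenic AMC peptide substrate; inhibitor potency from loss of enzyme activity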
T6 sequence (P00748 whole entry): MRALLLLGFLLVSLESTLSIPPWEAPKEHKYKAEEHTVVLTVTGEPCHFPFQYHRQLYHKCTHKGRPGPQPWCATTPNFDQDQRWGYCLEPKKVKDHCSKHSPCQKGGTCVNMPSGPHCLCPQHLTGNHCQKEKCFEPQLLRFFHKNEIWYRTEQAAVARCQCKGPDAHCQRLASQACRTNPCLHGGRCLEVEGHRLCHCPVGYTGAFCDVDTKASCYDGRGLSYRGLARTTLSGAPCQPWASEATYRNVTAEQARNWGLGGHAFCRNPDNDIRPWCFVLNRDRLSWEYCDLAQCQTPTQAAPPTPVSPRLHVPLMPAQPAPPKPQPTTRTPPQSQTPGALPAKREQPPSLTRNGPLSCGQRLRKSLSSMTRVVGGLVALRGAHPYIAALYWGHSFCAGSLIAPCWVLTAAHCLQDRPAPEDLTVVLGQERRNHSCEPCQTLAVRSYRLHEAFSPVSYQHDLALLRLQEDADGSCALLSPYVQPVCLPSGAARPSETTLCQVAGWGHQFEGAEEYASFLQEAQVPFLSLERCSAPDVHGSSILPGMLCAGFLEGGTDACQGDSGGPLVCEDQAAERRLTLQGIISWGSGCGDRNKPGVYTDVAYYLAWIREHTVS

[23] = test system: Vero; test: Vero cell cytotoxicity, cytotoxicity control for flavivirus capping enzyme inhibitors (AID 588742); assay type: functional; conditions: Chlorocebus sabaeus
[24] = biological target: Prothrombin (Homo sapiens, UniProt P00734); test: Thrombin 1536 HTS Dose Response Confirmation. [Related pubchem assays: 1046 (Thrombin 1536 HTS; hits were confirmed in this assay)]; assay type: functional
[25] = biological target: Cytochrome P450 2D6 (Homo sapiens, UniProt P10635);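 further: CYP2D6 member of a cytochrome P450 panel assay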
[26] = biological target: Genome polyprotein (dengue virus type 2, UniProt P29990); test: Dengue-2 NS5 methyltransferase inhibitors, primary screen, biochemical, confirmation dose response (AID 588689); assay type: functional
[27] = biological target: T7, Serine/threonine-protein phosphatase (Homo sapiens, UniProt Q9BPW0); test: Counterscreen for inhibitors of PP1: fluorescence-based biochemical high throughput dose response assay to identify inhibitors of Protein Phosphatase 5 (PP5). [Related pubchem assays: 2034 (Summary (PP5 inhibitors)), 1987 (PP5 inhibitors in singlate), 2235 (PP1 inhibitors in singlate)]
T7 sequence (Q9BPW0 whole entry): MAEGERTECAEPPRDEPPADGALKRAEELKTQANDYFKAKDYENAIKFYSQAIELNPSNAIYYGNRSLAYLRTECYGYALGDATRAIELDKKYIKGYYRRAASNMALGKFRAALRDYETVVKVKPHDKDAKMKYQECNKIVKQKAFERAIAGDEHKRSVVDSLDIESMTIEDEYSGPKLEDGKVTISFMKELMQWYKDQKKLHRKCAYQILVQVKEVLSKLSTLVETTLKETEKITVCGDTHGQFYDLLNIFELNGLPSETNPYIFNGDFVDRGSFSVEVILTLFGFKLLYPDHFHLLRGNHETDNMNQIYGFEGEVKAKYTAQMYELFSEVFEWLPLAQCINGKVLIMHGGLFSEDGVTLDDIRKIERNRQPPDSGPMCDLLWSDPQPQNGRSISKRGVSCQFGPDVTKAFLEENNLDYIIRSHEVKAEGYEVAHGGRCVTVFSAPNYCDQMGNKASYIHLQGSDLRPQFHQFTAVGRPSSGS

CCN(CC)C(=O)CSc1ncnc2c(-c3cccs3)nsc12
IC50 [1]: 3.16 µM (active) | IC50 [2]: 12.9 µM (active) | IC50 [3]: 37.6 µM (active) | IC50 [4]: 17.8 µM (active) | IC50 [5]: 61.2 µM (active)

CC(C)Oc1ccc(C(=O)Nc2ccc(N(C)C)cc2)cc1
IC50 [6]: > 80 µM (inactive) | IC50 [7]: 4.48 µM (not active) | IC50 [8]: 25.3 µM (active)

O=c1c2c([N+](=O)[O-])cc([N+](=O)[O-])cc2sn1Cc1ccccc1
EC50 [9]: 16.1 µM (active) | EC50 [10]: 1.77 µM (active) | EC50 [11]: 16.9 µM (active) | IC50 [12]: > 0.101 µM (active) | EC50 [13]: > 150 µM (not active) | EC50 [14]: 4.35 µM (active) | IC50 [4]: 4.16 µM (active) | IC50 [8]: 13.1 µM (active) | IC50 [15]: > 59.6 µM (not active)

O=C(CSc1nnc(-c2cccs2)n1Cc1ccccc1)NCc1ccc2c(c1)OCO2
EC50 [16]: 10.2 µM (active)

COc1ccc(NC(=O)Cn2c(=O)oc3cc(S(=O)(=O)N4CCCC4)ccc32)c(OC)c1
EC50 [17]: > 50 µM (active)

C=CCn1c(S)nnc1CSc1nc2ccccc2s1
IC50 [4]: 3.29 µM (active) | IC50 [5]: > 100 µM (inactive)

COc1ccc(C(=O)O)cc1NC(=S)NC(=O)c1ccc(-c2ccc(Cl)cc2)o1
IC50 [18]: 7.5 µM (active) | IC50 [7]: 7.13 µM (not active) | IC50 [19]: 7.33 µM (active) | EC50 [9]: > 150 µM (not active) | EC50 [13]: 23.8 µM (inconclusive) | EC50 [14]: 5.27 µM (active) | IC50 [20]: 27.1 µM (active)

O=C(NC1(C(F)(F)F)Oc2ccccc2O1)N1CCC2(CC1)OCCO2
IC50 [12]: 2.78 µM (active) | IC50 [15]: > 59.6 µM (not active)

Cc1ccc(C)c2nc(O)c(CN(Cc3cccnc3)C(S)=NCc3ccco3)cc12
EC50 [17]: > 50 µM (active)

CCOc1ccc(Br)cc1S(=O)(=O)Nc1ccccc1N1CCOCC1
EC50 [21]: > 40 µM (inactive)

O=C(NCc1ccccc1)C(c1ccccc1)N(Cc1ccc2c(c1)OCO2)C(=O)Cc1cccs1 (configuration not stated)
EC50 [16]: 5.37 µM (active)

CCN(CC)c1ccc(/C=N/N=C(c2ccccc2)c2ccccc2)c(O)c1
IC50 [6]: > 80 µM (inactive)

Sc1nnc(COc2ccccc2)n1/N=C/c1cccnc1
IC50 [4]: 3.71 µM (active) | IC50 [5]: > 100 µM (inactive)

NC(=O)/C(=N\OC(=O)c1ccco1)c1nc(-c2ccc(Br)cc2)cs1
IC50 [22]: 21 µM (active) | CC50 [23]: > 40 µM (active) | IC50 [2]: 7.32 µM (active) | IC50 [24]: 0.925 µM (active) | IC50 [3]: 29.2 µM (active) | AC50 [25]: 25.1 µM (inconclusive) | IC50 [26]: 40.8 µM (active) | IC50 [20]: 34.3 µM (active)

COc1cc(OC)c(/C=N/NC(N)=S)cc1Br
IC50 [6]: > 80 µM (inactive)

O=C1OC(=O)C2C1[C@@H]1CC[C@H]2O1 (some centres not stated)
IC50 [27]: 3.06 µM (active)

O=C1OC(=O)C2C3CCC(O3)C12 (configuration not stated)
IC50 [27]: 2.57 µM (active)
